In patent US20020111274A1, “1-alkyl-3-[1-(substituted phenyl) benzotriazol-6-yl] uracils” (BASF Aktiengesellschaft, priority 2000, published 2002) one finds melting point data, which are given here for one compound.

One may read the melting point as the temperature of the solid-liquid transition. Take `CCc1cccc(-n2nnc3cc(F)c(-n4c(=O)cc(C(F)(F)F)[nH]c4=O)cc32)c1` [Example 13, 3-[1-(3-ethylphenyl)-5-fluoro-1H-1,2,3-benzotriazol-6-yl]-6-(trifluoromethyl)-2,4(1H,3H)-pyrimidinedione]: the melting point is 160 °C.
